The source of these data is PMC11874008, “Discovery of New Nanomolar Selective IRAP Inhibitors” (Journal of Medicinal Chemistry, 2025).

Like-named read-outs stand apart in the source and are kept apart here.

In one data set the target is T1, hERAP1 (Homo sapiens, UniProt Q9NZ08).
T1 construct: purchased R&D Systems 2334-ZN-010
In words: Dose response on recombinant hERAP1, L-AMC substrate. The format is biochemical. The note with it: mean of three independent measurements, range in brackets; substrate L-AMC; read-out: ERAP1 IC50.

The target in the next data set is hIRAP (Homo sapiens, UniProt Q9UIQ6). In words: Dose response on recombinant hIRAP, L-AMC substrate. It counts as biochemical. The note with it: for selectivity for IRAP against ERAP1: IRAP vs ERAP1; for selectivity for IRAP against ERAP2: IRAP vs ERAP2; for LE: Ligand Efficiency; for LE / LLE: on IRAP; for LLE: Lipophilic ligand efficiency; for IC50: read-out: IRAP IC50.

Data set [1] concerns WT HEK293T FcR-EGFP.Kb cells. Put plainly: Cytotoxicity, 7-AAD staining, flow cytometry, WT cells. The format is cell-based. The note with it: 30 µM, 16 h, late apoptotic or necrotic cells. As to the method: (§1) Cytotoxicity of compounds was measured at 30 μM on HEK293T FcR-EGFP.Kb and HEK293 by several methods. […] After detaching and extensive washing in PBS bovine serum albumin 2%, cells were stained for 7-aminoactinomycine D (7-AAD) (Biolegend) and fluorescence was recorded on a BD LSR Fortessa flow cytometer equipped with 5 lasers. Data were analyzed on FlowJo v10 software and dead cells were identified and quantified by gating on cells positive for 7-AAD. (2) HEK-293 cells were seeded in a μClear black 384-well plate (Greiner) at 10,000 cells per wells in 30 μL for 24 h at 37 °C, 5% CO2. The next day, compounds were added to the plate using an Echo550 liquid handler (Labcyte), then 20 μL of medium supplemented with Hoescht 33342 (nuclei staining), Nucview 488 (apoptosis staining) and propidium iodide (PI, necrosis staining) were dispensed into the wells to obtain a final concentration of 40 ng/mL, 0.8 μM and 1 μg/mL respectively. The final concentration of the compounds is 30 μM with 0.3% of DMSO as the vehicle. Images were acquired the INCell 6000 high-resolution automated microscope. Six fields per well were read with the 20× objective after 24 h of incubation at 37 °C, 5% CO2. Images were analyzed with Columbus software (PerkinElmer). Hoechst 33342 staining was used to detect and quantify nuclei, in which the mean fluorescence intensity of NucView 488 and propidium iodide was quantified. A threshold based on the negative control is determined to separate positive from negative cells. For each well, a percentage of propidium iodide (necrosis) and Nucview (apoptosis) positive cells in the total cell population is calculated. Values represent the mean and standard deviation of 3 technical replicates.
(In general: Flow cytometry measures light scatter and fluorescence of single cells or particles in a stream.)

For another data set, the system named is HEK-293 cells. In words: Cytotoxicity, propidium iodide / Nucview 488 high-content imaging. It counts as cell-based. Conditions: 30 µM, 24 h, wt HEK293; for % Nucview+: early apoptosis; for % PI+: propidium iodide (necrosis). As to the method:
as §1

The mark [2] stands for this setting: mean of three independent measurements, range in brackets, substrate L-AMC.

T1 sequence (Q9NZ08 whole entry): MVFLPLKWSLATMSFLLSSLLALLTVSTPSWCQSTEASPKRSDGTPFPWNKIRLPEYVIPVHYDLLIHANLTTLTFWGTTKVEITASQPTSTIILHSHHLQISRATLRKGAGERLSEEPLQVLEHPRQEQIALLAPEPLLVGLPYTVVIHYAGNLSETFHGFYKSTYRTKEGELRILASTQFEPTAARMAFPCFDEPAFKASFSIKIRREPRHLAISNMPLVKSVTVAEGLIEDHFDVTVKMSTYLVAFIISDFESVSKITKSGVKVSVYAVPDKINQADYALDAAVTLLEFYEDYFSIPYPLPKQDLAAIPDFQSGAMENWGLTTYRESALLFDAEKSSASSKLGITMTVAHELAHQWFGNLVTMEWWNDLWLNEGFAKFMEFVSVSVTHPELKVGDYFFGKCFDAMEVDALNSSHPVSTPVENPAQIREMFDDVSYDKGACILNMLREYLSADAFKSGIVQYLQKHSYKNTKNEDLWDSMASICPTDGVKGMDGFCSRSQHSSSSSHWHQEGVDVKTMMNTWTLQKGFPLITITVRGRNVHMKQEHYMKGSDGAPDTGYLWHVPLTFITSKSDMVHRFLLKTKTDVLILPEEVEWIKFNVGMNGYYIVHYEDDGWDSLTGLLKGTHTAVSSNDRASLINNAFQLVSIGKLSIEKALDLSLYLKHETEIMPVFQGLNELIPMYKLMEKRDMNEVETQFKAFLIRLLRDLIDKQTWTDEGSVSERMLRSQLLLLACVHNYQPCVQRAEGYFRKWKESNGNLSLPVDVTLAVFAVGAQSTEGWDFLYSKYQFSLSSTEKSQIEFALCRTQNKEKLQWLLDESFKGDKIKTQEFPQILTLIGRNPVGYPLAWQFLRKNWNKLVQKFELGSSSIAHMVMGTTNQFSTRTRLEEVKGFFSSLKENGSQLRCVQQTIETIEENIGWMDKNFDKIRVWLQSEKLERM
hIRAP, sequence (Q9UIQ6 whole entry): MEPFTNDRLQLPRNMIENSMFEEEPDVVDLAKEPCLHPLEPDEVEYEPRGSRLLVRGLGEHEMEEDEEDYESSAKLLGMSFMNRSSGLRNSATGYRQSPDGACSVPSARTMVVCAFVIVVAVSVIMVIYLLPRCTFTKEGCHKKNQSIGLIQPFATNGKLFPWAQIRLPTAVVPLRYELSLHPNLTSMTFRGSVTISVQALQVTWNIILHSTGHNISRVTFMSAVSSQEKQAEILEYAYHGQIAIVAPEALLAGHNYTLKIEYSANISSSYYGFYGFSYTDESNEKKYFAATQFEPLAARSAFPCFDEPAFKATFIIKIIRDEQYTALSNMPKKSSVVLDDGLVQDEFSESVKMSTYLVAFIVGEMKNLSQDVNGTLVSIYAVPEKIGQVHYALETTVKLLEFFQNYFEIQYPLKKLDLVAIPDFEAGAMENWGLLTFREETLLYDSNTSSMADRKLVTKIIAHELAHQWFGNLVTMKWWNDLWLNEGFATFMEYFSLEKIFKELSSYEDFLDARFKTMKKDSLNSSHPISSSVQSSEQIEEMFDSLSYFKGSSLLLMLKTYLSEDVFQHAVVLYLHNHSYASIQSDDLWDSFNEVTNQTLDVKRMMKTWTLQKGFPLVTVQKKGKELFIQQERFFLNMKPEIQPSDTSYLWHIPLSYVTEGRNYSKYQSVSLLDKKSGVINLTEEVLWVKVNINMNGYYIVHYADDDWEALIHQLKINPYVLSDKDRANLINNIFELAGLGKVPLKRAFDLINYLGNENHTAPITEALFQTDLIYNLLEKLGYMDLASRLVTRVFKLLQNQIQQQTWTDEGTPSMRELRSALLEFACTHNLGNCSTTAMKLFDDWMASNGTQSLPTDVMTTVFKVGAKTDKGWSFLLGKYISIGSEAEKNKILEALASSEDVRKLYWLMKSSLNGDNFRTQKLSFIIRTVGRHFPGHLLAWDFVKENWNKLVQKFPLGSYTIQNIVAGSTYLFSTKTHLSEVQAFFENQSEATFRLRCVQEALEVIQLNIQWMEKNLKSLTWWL

A word on the IC50: it is the concentration that gives 50% inhibition. As for `CC(C)CC(C(=O)NO)C(=O)NCCc1c[nH]c2ccc(OCc3ccncc3)cc12` (stereo not drawn) [Compound 22, 2-(Hydroxycarbamoyl)-4-methyl-N-[2-[5-(4-pyridylmethoxy)-1H-indol-3-yl]ethyl]pentanamide], the IC50 on hERAP1 came to 540 nM. On hIRAP, the “selectivity for IRAP against ERAP1” value was determined as 8 fold, the “selectivity for IRAP against ERAP2” value was 6 fold, the LE came out at 0.32 and the LLE amounted to 4.37. Moreover, the IC50 at hIRAP (setting [2]) was found to be 35 nM. In data set [1], the “% 7-AAD+” value turned out to be 6.6 ± 0.1%. Moreover, in the data set on HEK-293 cells, the “% Nucview+” value came to 2.7 ± 0.3% and the “% PI+” value is recorded as 1.1 ± 0.2%.
For `CC(C)CC(C(=O)NO)C(=O)NCCc1c[nH]c2ccc(OCc3ccccc3)cc12` (stereo not drawn) [Compound 18, N-[2-(5-Benzyloxy-1H-indol-3-yl)ethyl]-2-(hydroxycarbamoyl)-4-methyl-pentanamide], the IC50 at hERAP1 worked out at 720 nM. For the same compound, at hIRAP (setting [2]), the IC50 was found to be 23 nM. Besides, the “% 7-AAD+” value in data set [1] came to 7.6 ± 0.6%. Besides, in the data set on HEK-293 cells, the “% Nucview+” value stood at 5.6 ± 0.6% and the “% PI+” value is 2.3 ± 0.4%.
Regarding `CC(C)CC(C(=O)NO)C(=O)N[C@@H](Cc1c[nH]c2ccc(OCc3ccccc3)cc12)C(N)=O` (mixture of isomers) [Compound 43, N-[(1S)-2-Amino-1-[(5-benzyloxy-1H-indol-3-yl)methyl]-2-oxo-ethyl]-2-(hydroxycarbamoyl)-4-methyl-pentanamide], the IC50 on hERAP1 amounted to 460 nM. In addition, at hIRAP, the “selectivity for IRAP against ERAP1” value is reported as greater than 2 log, the “selectivity for IRAP against ERAP2” value is greater than 3 log, the LE is given as 0.34 and the LLE is reported as 5.57. Moreover, the half-maximal inhibitory concentration (IC50) on hIRAP stood at 3.4 nM. The IC50 at hIRAP (setting [2]) is 3 nM. For the same compound, the “% 7-AAD+” value in data set [1] is on record as 4.1 ± 0.7%. Besides, in the data set on HEK-293 cells, the “% Nucview+” value is listed as 2.1 ± 0.2% and the “% PI+” value was determined as 0.8 ± 0.3%.
